In PubChem BioAssay (NCI):
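Compound exposure: 48 hours, 5 concentrations, 96-well plates. At the GI50, growth is halved. TGI is the concentration that stops growth completely.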

How the values were obtained:
Assay in all cases: NCI tumour cell line growth inhibition, 48 h
MCF7 breast = test system: MCF7 breast
OVCAR-4 ovarian = test system: OVCAR-4 ovarian
NCI-H460 lung = test system: NCI-H460 lung
SF-539 CNS = test system: SF-539 CNS
CCRF-CEM leukemia = test system: CCRF-CEM leukemia
HOP-62 NSCLC = test system: HOP-62 NSCLC
SR leukemia = test system: SR leukemia
SK-MEL-28 melanoma = test system: SK-MEL-28 melanoma
SNB-19 CNS = test system: SNB-19 CNS
OVCAR-5 ovarian = test system: OVCAR-5 ovarian
MALME-3M melanoma = test system: MALME-3M melanoma
M14 melanoma = test system: M14 melanoma
SF-295 CNS = test system: SF-295 CNS
HCT-116 colon = test system: HCT-116 colon
HT29 colon = test system: HT29 colon
MDA-MB-231 breast = test system: MDA-MB-231 breast
DU-145 prostate = test system: DU-145 prostate
A498 renal = test system: A498 renal
HCT-15 colon = test system: HCT-15 colon
NCI-H226 lung = test system: NCI-H226 lung
HL-60(TB) leukemia = test system: HL-60(TB) leukemia
SK-MEL-5 melanoma = test system: SK-MEL-5 melanoma
NCI-H522 lung = test system: NCI-H522 lung
PC-3 prostate = test system: PC-3 prostate
BT-549 breast = test system: BT-549 breast
TK-10 renal = test system: TK-10 renal
ACHN renal = test system: ACHN renal
SW-620 colon = test system: SW-620 colon
MOLT-4 leukemia = test system: MOLT-4 leukemia
EKVX NSCLC = test system: EKVX NSCLC
A549 NSCLC = test system: A549 NSCLC
RPMI-8226 leukemia = test system: RPMI-8226 leukemia
786-0 renal = test system: 786-0 renal
SN12C renal = test system: SN12C renal
NCI-H23 lung = test system: NCI-H23 lung
SNB-75 CNS = test system: SNB-75 CNS
RXF 393 renal = test system: RXF 393 renal
MDA-MB-435 = test system: MDA-MB-435
HOP-92 NSCLC = test system: HOP-92 NSCLC
UACC-257 melanoma = test system: UACC-257 melanoma
HS 578T breast = test system: HS 578T breast
SF-268 CNS = test system: SF-268 CNS
K-562 leukemia = test system: K-562 leukemia
U251 CNS = test system: U251 CNS
IGROV1 ovarian = test system: IGROV1 ovarian
HCC-2998 colon = test system: HCC-2998 colon
OVCAR-3 ovarian = test system: OVCAR-3 ovarian
UO-31 renal = test system: UO-31 renal
CAKI-1 renal = test system: CAKI-1 renal
UACC-62 melanoma = test system: UACC-62 melanoma
KM12 colon = test system: KM12 colon
LOX IMVI melanoma = test system: LOX IMVI melanoma
SK-OV-3 ovarian = test system: SK-OV-3 ovarian
COLO 205 colon = test system: COLO 205 colon

In the case of C[n+]1c2ccccc2c(Nc2ccc(N3CCCCC3)cc2)c2[nH]c3ccccc3c21, the GI50 (MCF7 breast) is reported as 152 nM, the TGI (MCF7 breast) is reported as 524 nM and the GI50 (OVCAR-4 ovarian) is reported as 326 nM. The TGI (OVCAR-4 ovarian) was 1230 nM, the GI50 (NCI-H460 lung) was 152 nM and the TGI (NCI-H460 lung) was 480 nM. It also gave a GI50 (SF-539 CNS) of 617 nM, a TGI (SF-539 CNS) of 1900 nM and a GI50 (CCRF-CEM leukemia) of 83.2 nM. The TGI (CCRF-CEM leukemia) was 312 nM, the GI50 (HOP-62 NSCLC) was 456 nM and the TGI (HOP-62 NSCLC) was 1810 nM. For the same compound, the GI50 (SR leukemia) was 3790 nM, the TGI (SR leukemia) was > 100000 nM and the GI50 (SK-MEL-28 melanoma) was 418 nM. For the same compound, the TGI (SK-MEL-28 melanoma) was 1360 nM, the GI50 (SNB-19 CNS) was 427 nM and the TGI (SNB-19 CNS) was 1760 nM. The GI50 (OVCAR-5 ovarian) was 658 nM, the TGI (OVCAR-5 ovarian) was 2090 nM and the GI50 (MALME-3M melanoma) was 340 nM. The TGI (MALME-3M melanoma) was 1530 nM, the GI50 (M14 melanoma) was 346 nM and the TGI (M14 melanoma) was 1470 nM. The GI50 (SF-295 CNS) was 379 nM, the TGI (SF-295 CNS) was 1550 nM and the GI50 (HCT-116 colon) was 132 nM. For the same compound, the TGI (HCT-116 colon) was 361 nM, the GI50 (HT29 colon) was 191 nM and the TGI (HT29 colon) was 656 nM. For the same compound, the GI50 (MDA-MB-231 breast) was 327 nM, the TGI (MDA-MB-231 breast) was 1700 nM and the GI50 (DU-145 prostate) was 272 nM. For the same compound, the TGI (DU-145 prostate) was 802 nM, the GI50 (A498 renal) was 234 nM and the TGI (A498 renal) was 843 nM. For the same compound, the GI50 (HCT-15 colon) was 154 nM, the TGI (HCT-15 colon) was 324 nM and the GI50 (NCI-H226 lung) was 324 nM. It also gave a TGI (NCI-H226 lung) of 1800 nM, a GI50 (HL-60(TB) leukemia) of 28.2 nM and a TGI (HL-60(TB) leukemia) of 192 nM. For the same compound, the GI50 (SK-MEL-5 melanoma) was 333 nM, the TGI (SK-MEL-5 melanoma) was 1460 nM and the TGI (NCI-H522 lung) was 90.8 nM. For the same compound, the GI50 (PC-3 prostate) was 154 nM, the TGI (PC-3 prostate) was 416 nM and the GI50 (BT-549 breast) was 1160 nM. It also gave a TGI (BT-549 breast) of 2450 nM, a GI50 (TK-10 renal) of 1230 nM and a TGI (TK-10 renal) of 2600 nM. It also gave a GI50 (ACHN renal) of 223 nM, a TGI (ACHN renal) of 1010 nM and a GI50 (SW-620 colon) of 184 nM. The TGI (SW-620 colon) was 726 nM, the GI50 (MOLT-4 leukemia) was 53.6 nM and the TGI (MOLT-4 leukemia) was 1180 nM. The GI50 (EKVX NSCLC) was 459 nM, the TGI (EKVX NSCLC) was 1930 nM and the GI50 (A549 NSCLC) was 166 nM. For the same compound, the TGI (A549 NSCLC) was 549 nM, the GI50 (RPMI-8226 leukemia) was 81 nM and the TGI (RPMI-8226 leukemia) was 262 nM. The GI50 (786-0 renal) was 456 nM, the TGI (786-0 renal) was 1690 nM and the GI50 (SN12C renal) was 212 nM. For the same compound, the TGI (SN12C renal) was 1240 nM, the GI50 (NCI-H23 lung) was 349 nM and the TGI (NCI-H23 lung) was 1680 nM. The GI50 (SNB-75 CNS) was 522 nM, the TGI (SNB-75 CNS) was 1910 nM and the GI50 (RXF 393 renal) was 174 nM. For the same compound, the TGI (RXF 393 renal) was 347 nM, the GI50 (MDA-MB-435) was 442 nM and the TGI (MDA-MB-435) was 1650 nM. For the same compound, the GI50 (HOP-92 NSCLC) was 264 nM, the TGI (HOP-92 NSCLC) was 1200 nM and the GI50 (UACC-257 melanoma) was 417 nM. For the same compound, the TGI (UACC-257 melanoma) was 1070 nM, the GI50 (HS 578T breast) was 231 nM and the TGI (HS 578T breast) was 705 nM. It also gave a GI50 (SF-268 CNS) of 460 nM, a TGI (SF-268 CNS) of 1620 nM and a GI50 (K-562 leukemia) of 155 nM. The TGI (K-562 leukemia) was 353 nM, the GI50 (U251 CNS) was 205 nM and the TGI (U251 CNS) was 670 nM. It also gave a GI50 (IGROV1 ovarian) of 229 nM, a TGI (IGROV1 ovarian) of 1180 nM and a GI50 (HCC-2998 colon) of 185 nM. The TGI (HCC-2998 colon) was 619 nM, the GI50 (OVCAR-3 ovarian) was 185 nM and the TGI (OVCAR-3 ovarian) was 368 nM. It also gave a GI50 (UO-31 renal) of 144 nM, a TGI (UO-31 renal) of 833 nM and a GI50 (CAKI-1 renal) of 114 nM. The TGI (CAKI-1 renal) was 1060 nM, the GI50 (UACC-62 melanoma) was 194 nM and the TGI (UACC-62 melanoma) was 861 nM. For the same compound, the GI50 (KM12 colon) was 281 nM, the TGI (KM12 colon) was 958 nM and the GI50 (LOX IMVI melanoma) was 144 nM. It also gave a TGI (LOX IMVI melanoma) of 340 nM, a GI50 (SK-OV-3 ovarian) of 515 nM and a TGI (SK-OV-3 ovarian) of 1850 nM. The GI50 (COLO 205 colon) was 140 nM and the TGI (COLO 205 colon) was 344 nM.
For Cc1nc2cc(Nc3nc(N4CCCCC4)nc(N4CCOCC4)n3)ccc2n1Cc1ccccc1, the GI50 (MCF7 breast) was 3280 nM, the TGI (MCF7 breast) was > 100000 nM and the GI50 (SF-539 CNS) was > 100000 nM. The TGI (SF-539 CNS) was > 100000 nM, the GI50 (SR leukemia) was 3570 nM and the TGI (SR leukemia) was > 100000 nM. For the same compound, the GI50 (M14 melanoma) was 3920 nM, the TGI (M14 melanoma) was > 100000 nM and the GI50 (DU-145 prostate) was 3480 nM. For the same compound, the TGI (DU-145 prostate) was > 100000 nM, the GI50 (HCT-15 colon) was 2840 nM and the TGI (HCT-15 colon) was > 100000 nM. The GI50 (NCI-H226 lung) was 4060 nM, the TGI (NCI-H226 lung) was > 100000 nM and the GI50 (HL-60(TB) leukemia) was 2160 nM. For the same compound, the TGI (HL-60(TB) leukemia) was 5490 nM, the GI50 (BT-549 breast) was 2510 nM and the TGI (BT-549 breast) was 7100 nM. The GI50 (SW-620 colon) was 3190 nM, the TGI (SW-620 colon) was > 100000 nM and the GI50 (MOLT-4 leukemia) was 3600 nM. The TGI (MOLT-4 leukemia) was > 100000 nM, the GI50 (786-0 renal) was 1780 nM and the TGI (786-0 renal) was 3230 nM. For the same compound, the GI50 (MDA-MB-435) was 3410 nM, the TGI (MDA-MB-435) was > 100000 nM and the GI50 (UACC-257 melanoma) was 3150 nM. For the same compound, the TGI (UACC-257 melanoma) was > 100000 nM, the GI50 (HS 578T breast) was 2710 nM and the TGI (HS 578T breast) was > 100000 nM. The GI50 (K-562 leukemia) was 6710 nM, the TGI (K-562 leukemia) was > 100000 nM and the GI50 (IGROV1 ovarian) was 3760 nM. For the same compound, the TGI (IGROV1 ovarian) was > 100000 nM, the GI50 (HCC-2998 colon) was 3980 nM and the TGI (HCC-2998 colon) was > 100000 nM.
